Reference: patent publication US6677362B1, “Solid pharmaceutical dispersions” (Warner-Lambert Company, priority 1991, dated 2004)

Columns and labels:
[1] = in vivo bioavailability studies involving animal models; conditions: administered in its original crystalline form
[2] = solubility of the drug in water / aqueous media; format: physicochemical

In the case of `Cc1c(C)c2c(c(C)c1O)CCC(C)(COc1ccc(CC3SC(=O)NC3=O)cc1)O2` (single isomer, unassigned; (+)) [Romglizone, (+)-5-[4-(6-hydroxy-2,5,7,8-tetramethylchroman-2-ylmethoxy)-benzyl]-2,4-thiazolidinedione], the bioavailability [1] is reported as “poor bioavailability”, the “change of solubility with pH” value ([2]; as the pH of the aqueous media increases) is reported as “slightly increases” and the solubility in water ([2]; water) is reported as “practically insoluble”.
